Assays:
Assay in all cases: relative viability (nuclei count vs DMSO), 5 days (fraction); higher = more cells survive
[1] = compound: CCN1C(=O)C2=CC(=C(N=C2N(C1=O)C3CC3)N)C(=O)N
Outline: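 Vehicle-anchored 1536-well plates of lung cancer cell lines, held overnight at 37 °C, were pinned with five library-drug doses (not always all listed) spaced by √10. No medium change followed over the next 5 days, after which the cells were fixed, permeabilised and Hoechst-stained together and imaged at 4×. Nuclei were counted with MetaXpress, and viability is treated-well nuclei over vehicle-well nuclei, taken as a median across plates. Plates passed with control CV below 25% and at least one doubling.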

[2] = compound: CCN1C(=O)C2=CC(=C(N=C2N(C1=O)C3CC3)N)C(=O)N + C[C@]1(O)C[C@@H](c2nc(-c3ccc4ccc(-c5ccccc5)nc4c3)c3c(N)nccn32)C1 [Linsitinib] (partner 1 µM)
Outline: (§1)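 Five library-drug doses in √10 steps were combined with a fixed anchor-drug dose, or a single drug was given alone, by pin tool to lung cancer cell lines in 1536-well plates the day after seeding. Nuclei were stained and counted after 5 days. Relative viability is the nuclei count in treated wells over that in vehicle wells, taken as the median of duplicate plates.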

[3] = compound: CCN1C(=O)C2=CC(=C(N=C2N(C1=O)C3CC3)N)C(=O)N + COc1cc2c(Oc3ccc(NC(=O)C4(C(=O)Nc5ccc(F)cc5)CC4)cc3F)ccnc2cc1OCCCN1CCOCC1 [Foretinib] (partner 0.25 µM)
Outline: as §1

[4] = compound: CCN1C(=O)C2=CC(=C(N=C2N(C1=O)C3CC3)N)C(=O)N + C[C@@H](Oc1cc(-c2cnn(C3CCNCC3)c2)cnc1N)c1c(Cl)ccc(F)c1Cl [Crizotinib] (partner 1 µM)
Outline: as §1

[5] = compound: CCN1C(=O)C2=CC(=C(N=C2N(C1=O)C3CC3)N)C(=O)N + N=C(N)NC(=N)NCCc1ccccc1 [Phenformin] (partner 250 µM)
Outline: as §1

| Cell Line | relative viability ([1]; 0.253 µM) | relative viability ([1]; 0.8 µM) | relative viability ([1]; 2.53 µM) | relative viability ([1]; 8 µM) | relative viability ([2]; first compound 0.253 µM) | relative viability ([2]; first compound 0.8 µM) | relative viability ([2]; first compound 2.53 µM) | relative viability ([2]; first compound 8 µM) | relative viability ([3]; first compound 0.253 µM) | relative viability ([3]; first compound 0.8 µM) | relative viability ([3]; first compound 2.53 µM) | relative viability ([3]; first compound 8 µM) | relative viability ([4]; first compound 0.253 µM) | relative viability ([4]; first compound 0.8 µM) | relative viability ([4]; first compound 2.53 µM) | relative viability ([4]; first compound 8 µM) | relative viability ([5]; first compound 0.253 µM) | relative viability ([5]; first compound 0.8 µM) | relative viability ([5]; first compound 2.53 µM) | relative viability ([5]; first compound 8 µM) |
| --- | --- | --- | --- | --- | --- | --- | --- | --- | --- | --- | --- | --- | --- | --- | --- | --- | --- | --- | --- | --- |
| NCI-H647 | 1.02 | 0.896 | 0.993 | 0.924 | 1.11 | 0.995 | 1.08 | 1.09 | 1.23 | 1.14 | 1.07 | 1.23 | 0.869 | 0.906 | 0.948 | 1.26 | 0.418 | 0.519 | 0.428 | 0.637 |
| LCLC-97TM1 | 0.936 | 0.792 | 0.977 | 0.879 | 0.196 |  |  | 0.218 | 0.869 | 0.866 | 0.86 | 1.1 | 0.366 |  |  | 0.316 | 0.383 | 0.452 | 0.375 | 0.407 |
| NCI-H1993 | 0.972 | 0.83 | 0.919 | 0.878 | 0.732 | 0.784 | 0.7 | 0.777 | 0.819 | 0.751 | 0.625 | 0.822 | 0.998 | 0.86 | 0.819 | 0.882 | 0.526 | 0.457 | 0.524 | 0.438 |
| HARA | 0.975 | 0.927 | 0.947 | 0.918 | 0.971 | 0.942 | 0.829 | 0.94 | 0.884 | 0.989 | 0.857 | 0.926 | 1.1 | 1.04 | 0.946 | 1.16 | 0.433 | 0.478 | 0.414 | 0.401 |
| NCI-H460 | 0.976 | 0.989 | 0.967 | 0.972 | 0.927 | 0.806 | 0.71 | 0.71 | 0.992 | 1.04 | 0.979 | 0.943 | 0.943 | 0.969 | 0.684 | 0.986 | 0.519 | 0.571 | 0.476 | 0.499 |
| EKVX | 1.01 | 0.955 | 0.959 | 0.913 | 1.03 | 1.03 | 0.934 | 0.998 | 0.785 | 0.743 | 0.875 | 0.639 | 1.07 | 1.14 | 0.837 | 1.05 | 0.256 | 0.248 | 0.316 | 0.231 |
| NCI-H1755 | 0.984 | 1.02 | 1 | 0.979 | 1.02 | 0.997 | 1.01 | 0.942 | 0.974 | 0.887 | 0.914 | 0.875 | 0.895 | 0.865 | 0.875 | 0.918 | 0.647 | 0.607 | 0.381 | 0.665 |

From the supplement of paper PMC10307832
